Data set [1] is classed as physicochemical. The procedure:
The thermal stability of azithromycin at 40° C. is measured in 50 mM phosphate buffer adjusted to the pH values indicated in FIG. 2. FIG. 3 is a secondary plot of data derived from the azithromycin stability profiles in FIG. 2. […] 6-6.5. A formulation pH of 6.3 is preferred to minimize degradation of azithromycin in aqueous formulations including those that employ DuraSite®.

The format of data set [2] is physicochemical. The source says: Ophthalmic carrier(s) is used in a broad sense and includes any material or composition that can contain and release the azalide antibiotic and that is compatible with the eye. Typically the ophthalmically acceptable carrier is water or an aqueous solution or suspension, but also includes oils such as those used to make ointments and polymer matrices such as used in ocular inserts. […] The stabilized compositions of this invention advantageously employ the increased water solubility of the protonated form of the antibiotic that is compatible with the optimal pH range for azalide antibiotic stability. […] Accordingly, stabilized aqueous solution of an azalide antibiotic can be formed and used for topical application. Alternatively, aqueous compositions containing a portion of the azalide antibiotic in suspension may be employed for topical administration. Ointments and solid dosage forms can also be used as delivery compositions as are well known in the art. The concentration of azalide antibiotic present in the ophthalmic composition depends upon the dosage form, the release rate, the dosing regimen, and the location and type of infection. […]
The solubility of azithromycin is measured as a function of pH in 0.2 M citric acid buffer over the range of pH 5.91 to 9.0.
The source holds these as a separate data set.

Each structure is given as a SMILES string.

Take `CCC1OC(=O)C(C)C(OC2CC(C)(OC)C(O)C(C)O2)C(C)C(OC2OC(C)CC(N(C)C)C2O)C(C)(O)CC(C)CN(C)C(C)C(O)C1(C)O` (stereo not drawn) [Azithromycin, N-methyl-11-aza-10-deoxo-10-dihydroerythromycin]: in data set [1], the “pH interval of maximum stability” value is recorded as 5.0-7.0 and the “pH of stability maximum” value is recorded as “about 6.3”.
In data set [2], `CC[C@H]1OC(=O)[C@H](C)[C@@H](O[C@H]2C[C@@](C)(OC)[C@@H](O)[C@H](C)O2)[C@H](C)[C@@H](O[C@@H]2O[C@H](C)C[C@H](N(C)C)[C@H]2O)[C@](C)(O)C[C@@H](C)CN(C)[C@H](C)[C@@H](O)[C@]1(C)O.O.O` [azithromycin dihydrate] had a water solubility of 200 to 250 mg/mL.

The values above are taken from patent US7056893B2, “Topical treatment for prevention of ocular infections” (Insite Vision, Inc., priority 1999, dated 2006).
